The record followed here is patent US3931217A, “2,3-Dihydro-5-alkoxy-5-phenyl-5H-imidazo[2,1-a]isoindoles” (Hoffmann-La Roche Inc., priority 1974, dated 1976).

Data set [1] deals with mice. The experiment in a line: direct-acting stimulant / psychostimulant effect in animals such as mice. Format: in vivo. The conditions noted are these: similarly tested; result in words. Here is the method: As has been indicated hereinabove the novel end products of this invention, i.e., the compounds of the formula I and their pharmaceutically acceptable acid addition salts and the compounds of formula II-d and their pharmaceutically acceptable acid addition salts, are useful as psychostimulants. When administered, for example, orally, to animals such as mice they produce a direct-acting stimulant effect of long duration in single doses in amounts ranging from 0.03 mg/kg to 50 mg/kg. […] Exp. Path. and Pharm., Vol. 140, page 237). The compounds of this invention have psychostimulant effects qualitatively similar in many respects to those of imipramine and amphetamine which are well known for their therapeutic uses and properties.

Data set [2] is described as follows: acute toxicity (LD50) in mice. The conditions noted are these: mouse, in vivo.
In data set [3] the test system is dogs. The experiment in a line: blood pressure in dogs. In kind it is in vivo. The conditions noted are these: 4 mg/kg i.v. Here is the method:
(§1) In addition to their use as psychostimulants, the compounds of formulas I and II-d are also useful as analgesic agents. […] For example, 2-(2-benzoylphenyl)-2-imidazoline in dogs at 4 mg/kg i.v. produced an increase in blood pressure of 10 mm. Hg after 2 minutes followed by gradual increase to 25 mm. Hg.

The subject of data set [4] is animals. The experiment in a line: analgesic properties in standard pharmacological tests in animals. In kind it is in vivo. The conditions noted are these: result in words. Here is the method:
as §1

The nature of data set [5]: LD50 of Example 21. As to conditions: in vivo, iv; species not given.

For `COC1(c2ccccc2)c2ccccc2C2=NCCN21` (centres unmarked) [2,3-dihydro-5-methoxy-5-phenyl-5H-imidazo[2,1-a]isoindole], in data set [1], the “test result compared with 2-(2-benzoylphenyl)-2-imidazoline” value is recorded as “qualitatively similar to 2-(2-benzoylphenyl)-2-imidazoline”.

Consider `O=C(c1ccccc1)c1ccccc1C1=NCCN1` [Example 10, 2-(2-benzoylphenyl)-2-imidazoline], for which the LD50 amounted to 77 mg/kg in data set [2] (ip), 37 mg/kg in data set [2] (iv), 200 mg/kg in data set [2] (po) and 130 mg/kg in data set [2] (sc). In addition, the “increase in blood pressure” value in data set [3] (after 2 minutes) came out at 10 mm. Hg. Besides, the “gradual increase in blood pressure” value in data set [3] (following the 2-minute value) stood at 25 mm. Hg. Also, in data set [4], the “analgesic properties compared with phenylbutazone” value was “can be likened to the analgesic properties of phenylbutazone”.

As for `O=C(c1ccc(Cl)cc1)c1ccccc1C1=NCCN1` [Example 15, 2-[2'-(4-chlorobenzoyl)phenyl]-2-imidazoline], the “test result compared with 2-(2-benzoylphenyl)-2-imidazoline” value in data set [1] is given as “qualitatively similar to 2-(2-benzoylphenyl)-2-imidazoline”.

For `COc1ccc(C(=O)c2ccccc2C2=NCCN2)cc1` [Example 16, 2-[2'-(4-anisoyl)phenyl]-2-imidazoline], in data set [1], the “test result compared with 2-(2-benzoylphenyl)-2-imidazoline” value is recorded as “qualitatively similar to 2-(2-benzoylphenyl)-2-imidazoline”.

In the case of `OC1(c2ccccc2)c2ccccc2C2=NCCCCN21` (centres unmarked) [Example 21, 2,3,4,5-tetrahydro-7-hydroxy-7-phenyl-7H-diazepino[2,1-a]isoindole], the LD50 in data set [5] was 40 mg/kg.

Usually LD50 stands for the dose expected to kill half of the subjects tested. A lower LD50 goes with a more toxic substance.
